Drawing on the NIST ThermoML archive (doi:10.1021/je0500375), this text covers activity coefficient for 16 molecules.

Numbers after ± are expanded uncertainties.

The first data set in a line: activity coefficient (dimensionless); of the first substance listed, at infinite dilution; xn = mol fraction of the nth substance listed. As to conditions: 298.15 K; 101.33 kPa; Liquid; Chromatography; x1 = 0.
As to `C1CCCCCC1` [cycloheptane] + CCCCCCCCOS(=O)(=O)[O-].CCCCn1cc[n+](C)c1, the activity coefficient stood at 5.43 ± 0.37.

For the molecule `CCCCCC` [hexane] + CCCCCCCCOS(=O)(=O)[O-].CCCCn1cc[n+](C)c1, the activity coefficient was 7.21 ± 0.49.

With `Cc1ccccc1` [toluene] + CCCCCCCCOS(=O)(=O)[O-].CCCCn1cc[n+](C)c1, the activity coefficient is 1.98 ± 0.13.

With `CCCCCCCC` [octane] + CCCCCCCCOS(=O)(=O)[O-].CCCCn1cc[n+](C)c1, the activity coefficient is 9.63 ± 0.66.

For `CCCCC` [pentane] + CCCCCCCCOS(=O)(=O)[O-].CCCCn1cc[n+](C)c1, the activity coefficient is 6.63 ± 0.45.

For the molecule `ClC(Cl)(Cl)Cl` [tetrachloromethane] + CCCCCCCCOS(=O)(=O)[O-].CCCCn1cc[n+](C)c1, the activity coefficient turned out to be 1.65 ± 0.11.

In the case of `CO` [methanol] + CCCCCCCCOS(=O)(=O)[O-].CCCCn1cc[n+](C)c1, the activity coefficient is 0.386 ± 0.033.

For the molecule `C#CCCCCCC` [1-octyne] + CCCCCCCCOS(=O)(=O)[O-].CCCCn1cc[n+](C)c1, the activity coefficient turned out to be 3.25 ± 0.22.

For `C1CCCCC1` [cyclohexane] + CCCCCCCCOS(=O)(=O)[O-].CCCCn1cc[n+](C)c1, the activity coefficient came to 4.92 ± 0.34.

Take `C#CCCCC` [1-hexyne] + CCCCCCCCOS(=O)(=O)[O-].CCCCn1cc[n+](C)c1: the activity coefficient came to 2.25 ± 0.15.

With `c1ccccc1` [benzene] + CCCCCCCCOS(=O)(=O)[O-].CCCCn1cc[n+](C)c1, the activity coefficient was 1.42 ± 0.09.

In the case of `C=CCCCCCC` [oct-1-ene] + CCCCCCCCOS(=O)(=O)[O-].CCCCn1cc[n+](C)c1, the activity coefficient worked out at 7.38 ± 0.5.

In the case of `C=CCCCC` [hex-1-ene] + CCCCCCCCOS(=O)(=O)[O-].CCCCn1cc[n+](C)c1, the activity coefficient was found to be 5.43 ± 0.37.

On to `C#CCCCCC` [1-heptyne] + CCCCCCCCOS(=O)(=O)[O-].CCCCn1cc[n+](C)c1, for which the activity coefficient turned out to be 2.66 ± 0.18.

For the molecule `C1CCCC1` [cyclopentane] + CCCCCCCCOS(=O)(=O)[O-].CCCCn1cc[n+](C)c1, the activity coefficient is 4.09 ± 0.28.

As for `CCCCCCC` [heptane] + CCCCCCCCOS(=O)(=O)[O-].CCCCn1cc[n+](C)c1, the activity coefficient came to 8.27 ± 0.56.

The same data set, now with this note: 313.15 K; 101.33 kPa; Liquid; Chromatography; x1 = 0.
Regarding `C1CCCCCC1` [cycloheptane] + CCCCCCCCOS(=O)(=O)[O-].CCCCn1cc[n+](C)c1, the activity coefficient was 5.52 ± 0.38.

For `CCCCCC` [hexane] + CCCCCCCCOS(=O)(=O)[O-].CCCCn1cc[n+](C)c1, the activity coefficient was 7.59 ± 0.52.

As for `Cc1ccccc1` [toluene] + CCCCCCCCOS(=O)(=O)[O-].CCCCn1cc[n+](C)c1, the activity coefficient amounted to 2.02 ± 0.14.

For the molecule `CCCCCCCC` [octane] + CCCCCCCCOS(=O)(=O)[O-].CCCCn1cc[n+](C)c1, the activity coefficient is 9.96 ± 0.68.

Consider `CCCCC` [pentane] + CCCCCCCCOS(=O)(=O)[O-].CCCCn1cc[n+](C)c1, for which the activity coefficient is 7.14 ± 0.49.

As to `ClC(Cl)(Cl)Cl` [tetrachloromethane] + CCCCCCCCOS(=O)(=O)[O-].CCCCn1cc[n+](C)c1, the activity coefficient was 1.74 ± 0.12.

In the case of `CO` [methanol] + CCCCCCCCOS(=O)(=O)[O-].CCCCn1cc[n+](C)c1, the activity coefficient is 0.369 ± 0.033.

In the case of `C#CCCCCCC` [1-octyne] + CCCCCCCCOS(=O)(=O)[O-].CCCCn1cc[n+](C)c1, the activity coefficient was 3.42 ± 0.23.

As for `C1CCCCC1` [cyclohexane] + CCCCCCCCOS(=O)(=O)[O-].CCCCn1cc[n+](C)c1, the activity coefficient stood at 5.02 ± 0.34.

`C#CCCCC` [1-hexyne] + CCCCCCCCOS(=O)(=O)[O-].CCCCn1cc[n+](C)c1: the activity coefficient is 2.38 ± 0.16.

In the case of `c1ccccc1` [benzene] + CCCCCCCCOS(=O)(=O)[O-].CCCCn1cc[n+](C)c1, the activity coefficient came out at 1.44 ± 0.09.

In the case of `C=CCCCCCC` [oct-1-ene] + CCCCCCCCOS(=O)(=O)[O-].CCCCn1cc[n+](C)c1, the activity coefficient came to 7.53 ± 0.51.

Take `C=CCCCC` [hex-1-ene] + CCCCCCCCOS(=O)(=O)[O-].CCCCn1cc[n+](C)c1: the activity coefficient came to 5.76 ± 0.39.

Consider `C#CCCCCC` [1-heptyne] + CCCCCCCCOS(=O)(=O)[O-].CCCCn1cc[n+](C)c1, for which the activity coefficient came to 2.85 ± 0.19.

With `C1CCCC1` [cyclopentane] + CCCCCCCCOS(=O)(=O)[O-].CCCCn1cc[n+](C)c1, the activity coefficient came to 4.24 ± 0.29.

On to `CCCCCCC` [heptane] + CCCCCCCCOS(=O)(=O)[O-].CCCCn1cc[n+](C)c1, for which the activity coefficient is 8.58 ± 0.59.

The same data set, now with this note: 328.15 K; 101.33 kPa; Liquid; Chromatography; x1 = 0.
`C1CCCCCC1` [cycloheptane] + CCCCCCCCOS(=O)(=O)[O-].CCCCn1cc[n+](C)c1: the activity coefficient was found to be 5.68 ± 0.39.

`CCCCCC` [hexane] + CCCCCCCCOS(=O)(=O)[O-].CCCCn1cc[n+](C)c1: the activity coefficient worked out at 7.98 ± 0.54.

On to `Cc1ccccc1` [toluene] + CCCCCCCCOS(=O)(=O)[O-].CCCCn1cc[n+](C)c1, for which the activity coefficient was found to be 2.08 ± 0.14.

Turning to `CCCCCCCC` [octane] + CCCCCCCCOS(=O)(=O)[O-].CCCCn1cc[n+](C)c1, the activity coefficient was found to be 10.3 ± 0.7.

Take `ClC(Cl)(Cl)Cl` [tetrachloromethane] + CCCCCCCCOS(=O)(=O)[O-].CCCCn1cc[n+](C)c1: the activity coefficient was 1.85 ± 0.12.

Consider `CO` [methanol] + CCCCCCCCOS(=O)(=O)[O-].CCCCn1cc[n+](C)c1, for which the activity coefficient is 0.36 ± 0.033.

Regarding `C#CCCCCCC` [1-octyne] + CCCCCCCCOS(=O)(=O)[O-].CCCCn1cc[n+](C)c1, the activity coefficient turned out to be 3.65 ± 0.25.

Consider `C1CCCCC1` [cyclohexane] + CCCCCCCCOS(=O)(=O)[O-].CCCCn1cc[n+](C)c1, for which the activity coefficient came out at 5.17 ± 0.35.

For the molecule `C#CCCCC` [1-hexyne] + CCCCCCCCOS(=O)(=O)[O-].CCCCn1cc[n+](C)c1, the activity coefficient was 2.56 ± 0.17.

Consider `c1ccccc1` [benzene] + CCCCCCCCOS(=O)(=O)[O-].CCCCn1cc[n+](C)c1, for which the activity coefficient was 1.45 ± 0.1.

`C=CCCCCCC` [oct-1-ene] + CCCCCCCCOS(=O)(=O)[O-].CCCCn1cc[n+](C)c1: the activity coefficient is 7.88 ± 0.54.

As for `C=CCCCC` [hex-1-ene] + CCCCCCCCOS(=O)(=O)[O-].CCCCn1cc[n+](C)c1, the activity coefficient is 6.13 ± 0.42.

For the molecule `C#CCCCCC` [1-heptyne] + CCCCCCCCOS(=O)(=O)[O-].CCCCn1cc[n+](C)c1, the activity coefficient is 3.08 ± 0.21.

Consider `C1CCCC1` [cyclopentane] + CCCCCCCCOS(=O)(=O)[O-].CCCCn1cc[n+](C)c1, for which the activity coefficient was 4.39 ± 0.3.

For the molecule `CCCCCCC` [heptane] + CCCCCCCCOS(=O)(=O)[O-].CCCCn1cc[n+](C)c1, the activity coefficient amounted to 9 ± 0.61.
